Reference: patent US9096565B2, “Inhibitors of histone deacetylase” (MethylGene Inc., priority 2007, dated 2015)

Biological target: one or more of HDAC-4, HDAC-5, HDAC-6, HDAC-7, HDAC-8, HDAC-9, HDAC-10 and HDAC-11
Test: Inhibition of histone deacetylase enzymatic activity (summary statement over isoforms)
Assay type: biochemical
Settings: Table 3, selected examples; HDAC isoform not given
How it was run: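 Activity was measured as deacetylation of the fluorogenic substrate Boc-Lys(trifluoroacetyl)-AMC over 20-30 min at 37 °C, after a 5 min room-temperature preincubation of enzyme with compound. Trypsin (1 mg/mL) with a reference HDAC inhibitor ended the reaction.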

**Q.** O=C(NO)C(c1ccccc1)c1ccc(N2CCN(S(=O)(=O)c3ccccc3)CC2)cc1 (centres unmarked) [Compound 5-97, N-hydroxy-2-phenyl-2-(4-(4-(phenylsulfonyl)piperazin-1-yl)phenyl)acetamide] was tested. Which IC50 did it give?
**A.** Its IC50 is < 1 µM.

**Q.** How did the IC50 turn out when COc1cccc(CNc2cccc(C(C(=O)NO)c3ccccc3)c2)c1 (centres unmarked) [Compound 2-85, N-hydroxy-2-(3-(3-methoxybenzylamino)phenyl)-2-phenylacetamide] was run?
**A.** The IC50 was < 1 µM.

**Q.** Which IC50 does the source give for CCCCOc1ccc(C(C(=O)NO)c2ccccc2)cc1 (centres unmarked) [Compound 2-10, 2-(4-butoxyphenyl)-N-hydroxy-2-phenylacetamide] here?
**A.** Its IC50 is 1 to 15 µM.

**Q.** How did the IC50 turn out when Cc1ccc(C(C(=O)NO)c2ccc(N3CCOCC3)cc2)cc1 (centres unmarked) [Compound 5-115, N-hydroxy-2-(4-morpholinophenyl)-2-p-tolylacetamide] was run?
**A.** Its IC50 is 1 to 15 µM.

**Q.** How did the IC50 turn out when CN(C)C(=O)c1ccc(-c2cccc(C(C(=O)NO)c3ccccc3)c2)cc1 (centres unmarked) [Compound 2-109, 3′-(2-(hydroxyamino)-2-oxo-1-phenylethyl)-N,N-dimethylbiphenyl-4-carboxamide] was run?
**A.** The IC50 was < 1 µM.

**Q.** O=C(NO)C(c1ccccc1)c1ccc(-c2ccncc2)cc1 (centres unmarked) [Compound 5-10, N-hydroxy-2-phenyl-2-(4-(pyridin-4-yl)phenyl)acetamide] was tested. Which IC50 did it give?
**A.** The IC50 was < 1 µM.

**Q.** Which IC50 does the source give for O=C(NO)C(Sc1ncccn1)c1ccccc1 (centres unmarked) [Compound 6-29, N-hydroxy-2-phenyl-2-(pyrimidin-2-ylthio)acetamide] here?
**A.** The IC50 was 1 to 15 µM.

**Q.** With COc1ccc(-c2ccnc(SC(C(=O)NO)c3ccccc3)n2)cc1 (centres unmarked) [Compound 6-42, N-hydroxy-2-(4-(4-methoxyphenyl)pyrimidin-2-ylthio)-2-phenylacetamide] as the compound, how does the IC50 read?
**A.** The IC50 was 1 to 15 µM.

**Q.** COc1ccccc1C(C(=O)NO)c1ccc(N2CCOCC2)cc1 (centres unmarked) [Compound 5-129, N-hydroxy-2-(2-methoxyphenyl)-2-(4-morpholinophenyl)acetamide] was tested. Which IC50 did it give?
**A.** Its IC50 is 1 to 15 µM.

**Q.** For CC(C)Nc1ccc(C(C(=O)NO)c2ccccc2)cc1 (centres unmarked) [Compound 3-79, N-hydroxy-2-(4-(isopropylamino)phenyl)-2-phenylacetamide], which IC50 is on record?
**A.** Its IC50 is < 1 µM.

**Q.** CSc1cccc(C(C(=O)NO)c2ccc(N3CCOCC3)cc2)c1 (centres unmarked) [Compound 6-25, N-hydroxy-2-(3-(methylthio)phenyl)-2-(4-morpholinophenyl)acetamide] was tested. Which IC50 did it give?
**A.** The IC50 was < 1 µM.

**Q.** For O=C(Nc1ccc(C(C(=O)NO)c2ccccc2)cc1)c1ccnc(Cl)c1 (centres unmarked) [Compound 2-74, 2-chloro-N-(4-(2-(hydroxyamino)-2-oxo-1-phenylethyl)phenyl)isonicotinamide], which IC50 is on record?
**A.** Its IC50 is < 1 µM.

**Q.** O=C(NO)C(c1ccccc1)c1ccc(OCc2ccc(F)cc2)cc1 (centres unmarked) [Compound 2-13] was tested. Which IC50 did it give?
**A.** Its IC50 is < 1 µM.

**Q.** For COc1ccc(C2CCN(C(C(=O)NO)c3ccccc3)CC2)cc1 (centres unmarked) [Compound 5-24, N-hydroxy-2-(4-(4-methoxyphenyl)piperidin-1-yl)-2-phenylacetamide], which IC50 is on record?
**A.** The IC50 was < 1 µM.

**Q.** For O=C(NO)C(c1ccccc1)N1CCC(c2nc3ccccc3o2)CC1 (centres unmarked) [Compound 5-35, 2-(4-(benzo[d]oxazol-2-yl)piperidin-1-yl)-N-hydroxy-2-phenylacetamide], which IC50 is on record?
**A.** Its IC50 is < 1 µM.

**Q.** With O=C(NO)C(c1ccccc1)c1cccc(C#Cc2ccccc2)c1 (centres unmarked) [Compound 2-94, N-hydroxy-2-phenyl-2-(3-(phenylethynyl)phenyl)acetamide] as the compound, how does the IC50 read?
**A.** The IC50 was 1 to 15 µM.

**Q.** Which IC50 does the source give for O=C(NO)C(c1ccccc1)[S+]([O-])c1ccccc1 (centres unmarked) [Compound 5-6, N-hydroxy-2-phenyl-2-(phenylsulfinyl)acetamide] here?
**A.** The IC50 was 1 to 15 µM.

**Q.** Which IC50 does the source give for O=C(NO)C(c1ccccc1)c1ccc(-c2ncccc2F)cc1 (centres unmarked) [Compound 5-74, 2-(4-(3-fluoropyridin-2-yl)phenyl)-N-hydroxy-2-phenylacetamide] here?
**A.** The IC50 was < 1 µM.

**Q.** For O=C(NO)C(c1ccccc1)c1ccc(N2CCN(CC3CC3)CC2)cc1 (centres unmarked) [Compound 5-105, 2-(4-(4-(cyclopropylmethyl)piperazin-1-yl)phenyl)-N-hydroxy-2-phenylacetamide], which IC50 is on record?
**A.** The IC50 was < 1 µM.

**Q.** For O=C(NO)C(c1ccccc1)N1CCc2[nH]c3ccc(F)cc3c2C1 (centres unmarked) [Compound 5-16, 2-(8-fluoro-3,4-dihydro-1H-pyrido[4,3-b]indol-2(5H)-yl)-N-hydroxy-2-phenylacetamide], which IC50 is on record?
**A.** Its IC50 is 1 to 15 µM.

**Q.** How did the IC50 turn out when O=C(NO)C(c1ccccc1)c1cccc(C#CCC2CCCC2)c1 (centres unmarked) [Compound 2-96, 2-(3-(3-cyclopentylprop-1-ynyl)phenyl)-N-hydroxy-2-phenylacetamide] was run?
**A.** Its IC50 is < 1 µM.

**Q.** How did the IC50 turn out when CN1CCN(c2ccc(C(C(=O)NO)c3ccccc3)cc2)CC1 (centres unmarked) [Compound 5-83, N-hydroxy-2-(4-(4-methylpiperazin-1-yl)phenyl)-2-phenylacetamide] was run?
**A.** Its IC50 is < 1 µM.

**Q.** How did the IC50 turn out when O=C(NO)C(c1ccccc1)c1ccc(NS(=O)(=O)c2ccccc2)cc1 (centres unmarked) [Compound 2-88, N-hydroxy-2-phenyl-2-(4-(phenylsulfonamido)phenyl)acetamide] was run?
**A.** The IC50 was < 1 µM.

**Q.** For “2-(3-(benzo[d][1,3]dioxol-5-ylmethylbenzo[d][1,3]dioxol-5-ylmethoxy)phenyl)-N-hydroxy-2-phenylacetamide [Compound 3-7]”, which IC50 is on record?
**A.** The IC50 was < 1 µM.

**Q.** Which IC50 does the source give for O=C(NO)C(c1ccccc1)c1cccc(-c2ccc(Oc3ccccc3)cc2)c1 (centres unmarked) [Compound 2-100, N-hydroxy-2-(4′-phenoxybiphenyl-3-yl)-2-phenylacetamide] here?
**A.** Its IC50 is 1 to 15 µM.

**Q.** O=C(NO)C(c1ccccc1)c1ccc(NCc2ccccn2)cc1 (centres unmarked) [Compound 3-81, N-hydroxy-2-phenyl-2-(4-(pyridin-2-ylmethylamino)phenyl)acetamide] was tested. Which IC50 did it give?
**A.** Its IC50 is < 1 µM.

**Q.** Which IC50 does the source give for CC(C)CCOc1ccc(C(C(=O)NO)c2ccccc2)cc1 (centres unmarked) [Compound 3-54, N-hydroxy-2-(4-(isopentyloxy)phenyl)-2-phenylacetamide] here?
**A.** The IC50 was 1 to 15 µM.

**Q.** For O=C(NO)C(c1ccccc1)N1CCN(C(=O)Cc2ccccc2)CC1 (centres unmarked) [Compound 2-28, N-hydroxy-2-phenyl-2-(4-(2-phenylacetyl)piperazin-1-yl)acetamide], which IC50 is on record?
**A.** Its IC50 is 1 to 15 µM.

**Q.** Which IC50 does the source give for COc1ccc(OC(C(=O)NO)c2ccccc2)cc1OC (centres unmarked) [Compound 7-42, 2-(3,4-dimethoxyphenoxy)-N-hydroxy-2-phenylacetamide] here?
**A.** Its IC50 is 1 to 15 µM.

**Q.** CC(Oc1cccc(C(C(=O)NO)c2ccccc2)c1)c1ccccc1 (centres unmarked) [Compound 3-8, N-hydroxy-2-phenyl-2-(3-(1-phenylethoxy)phenyl)acetamide] was tested. Which IC50 did it give?
**A.** Its IC50 is 1 to 15 µM.

**Q.** With O=C(NO)C(c1ccccc1)c1ccc(N2Cc3ccccc3C2)cc1 (centres unmarked) [Compound 5-107, N-hydroxy-2-(4-(isoindolin-2-yl)phenyl)-2-phenylacetamide] as the compound, how does the IC50 read?
**A.** Its IC50 is < 1 µM.

**Q.** How did the IC50 turn out when O=CN(O)C(c1ccccc1)c1ccc(OCc2ccccc2)cc1 (centres unmarked) [Compound 5-98, N-((4-(benzyloxy)phenyl)(phenyl)methyl)-N-hydroxyformamide] was run?
**A.** The IC50 was 1 to 15 µM.

**Q.** For O=C(NO)C(c1ccccc1)N1CCN(Cc2ccccc2)CC1 (centres unmarked) [Compound 1-17, 2-(4-benzylpiperazin-1-yl)-N-hydroxy-2-phenylacetamide], which IC50 is on record?
**A.** The IC50 was 1 to 15 µM.

**Q.** O=C(NO)C(c1ccccc1)N1CCC2(CC1)OCCO2 (centres unmarked) [Compound 2-41, N-hydroxy-2-phenyl-2-(1,4-dioxa-8-azaspiro[4.5]decan-8-yl)acetamide] was tested. Which IC50 did it give?
**A.** Its IC50 is 1 to 15 µM.

**Q.** Which IC50 does the source give for O=C(NO)C(Cc1ccccc1)c1ccccc1 (centres unmarked) [Compound 1-11, N-hydroxy-2,3-diphenylpropanamide] here?
**A.** Its IC50 is 1 to 15 µM.

**Q.** For O=C(NO)C(Sc1nccc(-c2ccc(Cl)cc2)n1)c1ccccc1 (centres unmarked) [Compound 1-37, 2-(4-(4-chlorophenyl)pyrimidin-2-ylthio)-N-hydroxy-2-phenylacetamide], which IC50 is on record?
**A.** Its IC50 is < 1 µM.

**Q.** How did the IC50 turn out when COc1ccc(COc2cccc(C(C(=O)NO)c3ccccc3)c2)cc1 (centres unmarked) [Compound 3-6, N-hydroxy-2-(3-(4-methoxybenzyloxy)phenyl)-2-phenylacetamide] was run?
**A.** Its IC50 is < 1 µM.

**Q.** How did the IC50 turn out when O=C(NO)C(c1ccccc1)c1ccc(N2CCOCC2)cc1 (centres unmarked) [Compound 5-22, N-hydroxy-2-(4-morpholinophenyl)-2-phenylacetamide] was run?
**A.** Its IC50 is < 1 µM.

**Q.** How did the IC50 turn out when O=C(NO)C(c1ccccc1)c1ccc(N2CCN(c3ccccn3)CC2)cc1 (centres unmarked) [Compound 5-66, N-hydroxy-2-phenyl-2-(4-(4-(pyridin-2-yl)piperazin-1-yl)phenyl)acetamide] was run?
**A.** The IC50 was < 1 µM.

**Q.** With O=C(NO)C(c1ccccc1)c1ccc(OCCN2CCCC2)cc1 (centres unmarked) [Compound 5-96, N-hydroxy-2-phenyl-2-(4-(2-(pyrrolidin-1-yl)ethoxy)phenyl)acetamide] as the compound, how does the IC50 read?
**A.** Its IC50 is < 1 µM.

**Q.** How did the IC50 turn out when CN(C)c1ccc(C(C(=O)NO)c2ccccc2)cc1 (centres unmarked) [Compound 1-29, 2-(4-(dimethylamino)phenyl)-N-hydroxy-2-phenylacetamide] was run?
**A.** The IC50 was < 1 µM.

**Q.** Which IC50 does the source give for O=C(NO)C(Oc1ccc2c(c1)OCO2)c1ccccc1 (centres unmarked) [Compound 7-17, 2-(benzo[d][1,3]dioxol-5-yloxy)-N-hydroxy-2-phenylacetamide] here?
**A.** The IC50 was 1 to 15 µM.

**Q.** For O=C(NO)C(c1ccc([N+](=O)[O-])cc1)c1ccc([N+](=O)[O-])cc1 [Compound 1-3, N-hydroxy-2,2-bis(4-nitrophenyl)acetamide], which IC50 is on record?
**A.** The IC50 was < 1 µM.

**Q.** Which IC50 does the source give for O=C(NO)C(c1ccccc1)c1cccc(NS(=O)(=O)c2ccc(Cl)cc2)c1 (centres unmarked) [Compound 2-93, 2-(3-(4-chlorophenylsulfonamido)phenyl)-N-hydroxy-2-phenylacetamide] here?
**A.** The IC50 was 1 to 15 µM.

**Q.** How did the IC50 turn out when CN(CCc1ccccc1)c1ccc(C(C(=O)NO)c2ccccc2)cc1 (centres unmarked) [Compound 6-40, N-hydroxy-2-(4-(methyl(phenethyl)amino)phenyl)-2-phenylacetamide] was run?
**A.** Its IC50 is < 1 µM.

**Q.** For O=C(NO)C(c1ccccc1)c1ccc(N2CCNCC2)cc1 (centres unmarked) [Compound 5-86, N-hydroxy-2-phenyl-2-(4-(piperazin-1-yl)phenyl)acetamide], which IC50 is on record?
**A.** Its IC50 is < 1 µM.

**Q.** With CCCCOc1cccc(C(C(=O)NO)c2ccccc2)c1 (centres unmarked) [Compound 2-5, 2-(3-butoxyphenyl)-N-hydroxy-2-phenylacetamide] as the compound, how does the IC50 read?
**A.** Its IC50 is 1 to 15 µM.

**Q.** Which IC50 does the source give for CC(=O)N1CCN(c2cccc(C(C(=O)NO)c3ccccc3)c2)CC1 (centres unmarked) [Compound 3-75, 2-(3-(4-acetylpiperazin-1-yl)phenyl)-N-hydroxy-2-phenylacetamide] here?
**A.** Its IC50 is < 1 µM.

**Q.** For CC(C)C(=O)ONC(=O)C(c1ccccc1)c1ccc(N2CCOCC2)cc1 (centres unmarked) [Compound 5-121, N-(isobutyryloxy)-2-(4-morpholinophenyl)-2-phenylacetamide], which IC50 is on record?
**A.** The IC50 was 1 to 15 µM.

**Q.** Which IC50 does the source give for O=C(NO)C(Oc1ccc2c(c1)CCCC2)c1ccccc1 (centres unmarked) [Compound 7-36, N-hydroxy-2-phenyl-2-(5,6,7,8-tetrahydronaphthalen-2-yloxy)acetamide] here?
**A.** The IC50 was 1 to 15 µM.
